Experimental data reported in US7122554B2, “Carboline derivatives” (Lilly Icos LLC., priority 2001, dated 2006).

Key:
human recombinant PDE5 = human recombinant PDE5 (Homo sapiens, UniProt O76074); experiment: Inhibitory effect on cGMP-PDE (PDE5 IC50, one-step assay); type: biochemical; conditions: human recombinant PDE5, 0.15 μM 8-[H3]-cGMP, 30 minutes incubation
Protocol: The compounds of structural formula (I) were tested for an ability to inhibit PDE5. The ability of a compound to inhibit PDE5 activity is related to the IC50 value for the compound, i.e., the concentration of inhibitor required for 50% inhibition of enzyme activity. The IC50 value for compounds of structural formula (I) were determined using recombinant human PDE5.
cGMP-PDE activity of compounds of the present invention was measured using a one-step assay adapted from Wells et al., Biochim. Biophys. Acta, 384, 430 (1975). The reaction medium contained 50 mM Tris-HCl, pH 7.5, 5 mM magnesium acetate, 250 μg/ml 5′-Nucleotidase, 1 mM EGTA, and 0.15 μM 8-[H^3]-cGMP. Unless otherwise indicated, the enzyme used was a human recombinant PDE5 (ICOS Corp., Bothell, Wash.).
Compounds of the invention were dissolved in DMSO finally present at 2% in the assay.

SMILES	IC50 (human recombinant PDE5) [nM]	melting point [°C]
O=C(Nc1ccccc1)C(=O)N1CCc2c([nH]c3ccccc23)[C@H]1c1ccc2c(c1)OCO2 [Example 1, (1R)-2-(1-benzo[1,3]dioxol-5-yl-1,3,4,9-tetrahydro-β-carbolin-2-yl)-2-oxo-N-phenylacetamide]	167	
S=C(NCc1ccccc1)N1CCc2c([nH]c3ccccc23)C1c1ccc2c(c1)OCO2 (stereo not drawn) [Example 2a, 1-benzo[1,3]dioxol-5-yl-1,3,4,9-tetrahydro-β-caboline-2-carbothioic acid benzylamide]	51	197
S=C(NCc1ccccc1)N1CCc2c([nH]c3ccccc23)[C@H]1c1ccc2c(c1)OCO2 [Example 2b, (1R)-1-benzo[1,3]dioxol-5-yl-1,3,4,9-tetrahydro-β-carboline-2-carbothioic acid benzylamide]	40	205 to 207
O=C(NCc1ccccc1)N1CCc2c([nH]c3ccccc23)C1c1ccccc1 (centres unmarked) [Example 4]	800	
O=C(Nc1ccccc1)N1CCc2c([nH]c3ccccc23)C1c1ccccc1 (centres unmarked) [Example 5]	400	
O=C(Nc1cccc2ccccc12)N1CCc2c([nH]c3ccccc23)C1c1ccccc1 (centres unmarked) [Example 6]	400	
O=C(NC1CCCCC1)N1CCc2c([nH]c3ccccc23)C1c1ccc2c(c1)OCO2 (centres unmarked) [Example 7]	850	
C[C@H](NC(=O)N1CCc2c([nH]c3ccccc23)[C@H]1c1ccc2c(c1)OCO2)c1ccccc1 [Example 10, (1R)-benzo[1,3]dioxol-5-yl-1,3,4,9-tetrahydro-β-carboline-2-carboxylic acid (1S)-(phenylethyl)amide]	13	120 to 121
O=C(NC(=O)N1CCc2c([nH]c3ccccc23)[C@H]1c1ccc2c(c1)OCO2)c1ccccc1 [Example 12, N-((1R)-1-benzo[1,3]dioxol-5-yl-1,3,4,9-tetrahydro-β-carboline-2-carbonyl)benzamide]	49	
O=C(OCc1ccccc1)N1CCc2c([nH]c3ccccc23)C1c1ccc2c(c1)OCO2 (stereo not drawn) [Example 15a, 1-benzo[1,3]dioxol-5-yl-1,3,4,9-tetrahydro-β-carboline-2-carboxylic acid benzyl ester]	17	
O=C(OCc1ccccc1)N1CCc2c([nH]c3ccccc23)[C@H]1c1ccc2c(c1)OCO2 [Example 15b, (1R)-1-benzo[1,3]dioxol-5-yl-1,3,4,9-tetrahydro-β-carboline-2-carboxylic acid benzyl ester]	9	
O=C(C=C1CCCCC1)N1CCc2c([nH]c3ccccc23)[C@H]1c1ccc2c(c1)OCO2 [Example 16]	209	116 to 118
O=C(CC(=O)N1CCc2c([nH]c3ccccc23)[C@H]1c1ccc2c(c1)OCO2)c1ccccc1 [Example 17, (1R)-1-(1-benzo[1,3]dioxol-5-yl-1,3,4,9-tetrahydro-β-carbolin-2-yl)-3-phenylpropane-1,3-dione]	29	
COC(=O)N1CCc2c([nH]c3ccccc23)C1c1ccccc1 (centres unmarked) [Example 19]	1	
COC(=O)CCCC(=O)N1CCc2c([nH]c3ccccc23)C1c1ccccc1 (centres unmarked) [Example 20]	1	
COc1ccc(C2c3[nH]c4ccccc4c3CCN2C(=O)CCCC(=O)O)cc1Cl (centres unmarked) [Example 21]	180	
O=C(O)CCCC(=O)N1CCc2c([nH]c3ccccc23)C1c1ccc2c(c1)OCO2 (centres unmarked) [Example 22]	150	
S=C(NCc1ccccc1Cl)N1CCc2c([nH]c3ccccc23)[C@H]1c1ccc2c(c1)OCO2 [Example 24, (1R)-benzo[1,3]dioxol-5-yl-1,3,4,9-tetrahydro-β-carboline-2-carbothioic acid 2-chlorobenzylamide]	177	123 to 128
S=C(NCc1ccc(Cl)cc1Cl)N1CCc2c([nH]c3ccccc23)[C@H]1c1ccc2c(c1)OCO2 [Example 25, (1R)-benzo[1,3]dioxol-5-yl-1,3,4,9-tetrahydro-β-carboline-2-carbothioic acid 2,4-dichlorobenzylamide]	126	124 to 127
Fc1ccccc1CNC(=S)N1CCc2c([nH]c3ccccc23)[C@H]1c1ccc2c(c1)OCO2 [Example 26]	40	
C[C@H](NC(=S)N1CCc2c([nH]c3ccccc23)[C@H]1c1ccc2c(c1)OCO2)c1ccccc1 [Example 27]	196	117 to 121

Further lines, results first:

IC50 (human recombinant PDE5) [nM]	melting point [°C]	SMILES
36		O=C(O)c1ccc(CNC(=S)N2CCc3c([nH]c4ccccc34)[C@H]2c2ccc3c(c2)OCO3)cc1 [Example 28, (1R)-4-{[(1-benzo[1,3]dioxol-5-yl-1,3,4,9-tetrahydro-β-carboline-2-carbthiolyl)-amino]methyl}benzoic acid]
469	218 to 220	O=C(O)c1cccc(CNC(=S)N2CCc3c([nH]c4ccccc34)[C@H]2c2ccc3c(c2)OCO3)c1 [Example 29, (1R)-3-{[(1-benzo[1,3]dioxol-5-yl-1,3,4,9-tetrahydro-β-carboline-2-carbthiolyl)amino]methyl}benzoic acid]
83		FC(F)(F)c1cc(NC(=S)N2CCc3c([nH]c4ccccc34)[C@H]2c2ccc3c(c2)OCO3)ccc1Cl [Example 30, (1R)-benzo[1,3]dioxol-5-yl-1,3,4,9-tetrahydro-β-carboline-2-carbothioic acid (4-chloro-3-trifuloromethylphenyl)amide]
518		FC(F)(F)c1ccccc1NC(=S)N1CCc2c([nH]c3ccccc23)[C@H]1c1ccc2c(c1)OCO2 [Example 31, (1R)-benzo[1,3]dioxol-5-yl-1,3,4,9-tetrahydro-β-carboline-2-carbothioic acid (2-trifluoromethylphenyl)amide]
51		S=C(NCc1ccc(Cl)cc1)N1CCc2c([nH]c3ccccc23)[C@H]1c1ccc2c(c1)OCO2 [Example 32, (1R)-benzo[1,3]dioxol-5-yl-1,3,4,9-tetrahydro-β-carboline-2-carbothioic acid 4-chlorobenzylamide]
75	179 to 181	Fc1cccc(CNC(=S)N2CCc3c([nH]c4ccccc34)[C@H]2c2ccc3c(c2)OCO3)c1 [Example 33, (1R)-benzo[1,3]dioxol-5-yl-1,3,4,9-tetrahydro-β-carboline-2-carbothioic acid 3-fluorobenzylamide]
512		S=C(NCc1ccc(Cl)c(Cl)c1)N1CCc2c([nH]c3ccccc23)[C@H]1c1ccc2c(c1)OCO2 [Example 34, (1R)-benzo[1,3]dioxol-5-yl-1,3,4,9-tetrahydro-β-carboline-2-carbothioic acid 3,4-dichlorobenzylamide]
122	137 to 139	Fc1ccc(CNC(=S)N2CCc3c([nH]c4ccccc34)[C@H]2c2ccc3c(c2)OCO3)cc1 [Example 35, (1R)-benzo[1,3]dioxol-5-yl-1,3,4,9-tetrahydro-β-carboline-2-carbothioic acid 4-fluorobenzylamide]
494	189 to 191	S=C(NCc1cccc(Cl)c1)N1CCc2c([nH]c3ccccc23)[C@H]1c1ccc2c(c1)OCO2 [Example 36, (1R)-benzo[1,3]dioxol-5-yl-1,3,4,9-tetrahydro-β-carboline-2-carbothioic acid 3-chlorobenzylamide]
30	138 to 142	Cc1ccc(CNC(=S)N2CCc3c([nH]c4ccccc34)[C@H]2c2ccc3c(c2)OCO3)cc1C [Example 37, (1R)-benzo[1,3]dioxol-5-yl-1,3,4,9-tetrahydro-β-carboline-2-carbothioic acid 3,4-dimethylbenzylamide]
379	207 to 208	O=C(NC(=S)N1CCc2c([nH]c3ccccc23)C1c1ccc2c(c1)OCO2)c1ccccc1 (centres unmarked) [Example 38]
119	111 to 113	S=C(NCc1cccc2ccccc12)N1CCc2c([nH]c3ccccc23)[C@H]1c1ccc2c(c1)OCO2 [Example 39, (1R)-1-benzo[1,3]dioxol-5-yl-1,3,4,9-tetrahydro-β-carboline-2-carbothioic acid (naphthalen-1-yl-methyl)amide]
56	97 to 100	S=C(NCc1ccc2c(c1)OCO2)N1CCc2c([nH]c3ccccc23)[C@H]1c1ccc2c(c1)OCO2 [Example 40, (1R)-1-benzo-[1,3]dioxol-5-yl-1,3,4,9-tetrahydro-β-carboline-2-carbothioic acid (benzo[1,3]dioxol-5-yl-methyl)amide]
675	191 to 192	O=S(=O)(/C=C/c1ccccc1)N1CCc2c([nH]c3ccccc23)C1c1ccc2c(c1)OCO2 (stereo not drawn) [Example 41a, 1-benzo[1,3]dioxol-5-yl-2-(2-phenylethenesulfonyl)-2,3,4,9-tetrahydro-1H-β-carboline]
413	193 to 194	O=S(=O)(/C=C/c1ccccc1)N1CCc2c([nH]c3ccccc23)[C@H]1c1ccc2c(c1)OCO2 [Example 41b, (1R)-1-benzo[1,3]dioxol-5-yl-2-(2-phenylethenesulfonyl)-2,3,4,9-tetrahydro-1H-β-carboline]
